Read-outs that look alike come from different tables or passages of the source.
Experiments:
in vitro = settings: human, HepG2-A16-CD81EGFP cells, uninfected
[1] = tested on: P. berghei-ANKA-GFP-LucCON liver stage parasites in HepG2-A16-CD81EGFP cells; test: P. berghei liver stage Pb-Luc assay, Method 1 (UCSD, 1536-well); format: cell-based, Plasmodium berghei; settings: Plasmodium berghei, 48 h, average of 2 wells, 1536-well plate; for activity at 1 µM: nominal 1 uM (10 mM stock), […] for 15 mM, 1.2 uM for 12 mM, 2 uM for 20 mM stock; for activity at 3 µM: nominal 3 uM (10 mM stock), 4.5 uM for 15 mM, 3.6 uM for 12 mM, 6 uM for 20 mM stock; as to all read-outs here: reference of the scale not given here
[2] = tested on: Plasmodium falciparum Dd2 asexual blood stage parasites; test: microbe, parasite or virus in culture; set-up: species or system Plasmodium falciparum Dd2 in human erythrocytes; single determination (one 11-point concentration-response curve); settings: Plasmodium falciparum, DD2, Erythrocyte, 72 h; read-out: AC50
HepG2-A16-CD81EGFP cells = settings: average of 2 wells, repeat 2; for HepG2 viability signal, 1 uM, repeat 2: nominal 1 uM (10 mM stock), […] for 15 mM, 1.2 uM for 12 mM, 2 uM for 20 mM stock; for HepG2 viability signal, 3 uM, repeat 2: nominal 3 uM (10 mM stock), 4.5 uM for 15 mM, 3.6 uM for 12 mM, 6 uM for 20 mM stock
[3] = repeat 1, read-out: Pb-Luc signal, 1 uM, repeat 1
[4] = repeat 2, read-out: Pb-Luc signal, 1 uM, repeat 2
[5] = repeat 3, read-out: Pb-Luc signal, 1 uM, repeat 3
[6] = repeat 1, read-out: Pb-Luc signal, 3 uM, repeat 1
[7] = repeat 2, read-out: Pb-Luc signal, 3 uM, repeat 2
[8] = repeat 3, read-out: Pb-Luc signal, 3 uM, repeat 3

SMILES | viability at 48 h, 1 µM (in vitro) | viability at 48 h, 3 µM (in vitro) | activity at 1 µM [1, 3] | activity at 1 µM [1, 4] | activity at 1 µM [1, 5] | activity at 3 µM [1, 6] | activity at 3 µM [1, 7] | activity at 3 µM [1, 8] | AC50 [2] | HepG2 viability signal, 1 uM, repeat 2 (HepG2-A16-CD81EGFP cells) | HepG2 viability signal, 3 uM, repeat 2 (HepG2-A16-CD81EGFP cells)
Oc1ccccc1-c1cc(-c2cccnc2)c2cncn2c1 [NCGC00412170-01] | 98.3% | 101% | 103% | 117% | 108% | 100% | 122% | 76.4% | 1.72 µM | 95.01% | 100.05%
c1ccc(Nc2cc3c(cn2)CN(Cc2ccc4[nH]ccc4c2)CCN3)cc1 [NCGC00411105-01] | 40.4% | 43.5% | 55.9% | 72.5% | 17.8% | 23.8% | 30.2% | 10.7% | 1.37 µM | 44.56% | 55.41%
Cc1cnc(CC2CCN([S+](=O)([O-])c3ccccc3)CC2)n1Cc1ccccc1 [NCGC00469740-01] | 94.7% | 96.4% | 97.2% | 133% | 138% | 81.1% | 76.7% | 90.7% | 5.31 µM | 97.06% | 98.63%
CC(C)C(=O)N1Cc2ccccc2CC2(CCCN(CC3CCCCC3)C2)C1 (stereo not drawn) [NCGC00377456-01] | 100% | 105% | 94.7% | 96.1% | 116% | 81.5% | 98% | 85.1% | 0.0531 µM | 102.51% | 104.36%
CCN1CCN(C(=O)c2ccc3c(c2)N(Cc2ccccc2F)C(=O)c2ccccc2[S+]3[O-])CC1 (stereo not drawn) [NCGC00109528-01] | 101% | 98.8% | 102% | 105% | 110% | 94.3% | 116% | 97.6% | 0.841 µM | 95.20% | 97.54%
CCOc1ccc(Cl)cc1CN(C)CC1(O)CCCNC1 (stereo not drawn) [NCGC00439019-01] | 99.5% | 96.9% | 133% | 111% | 171% | 102% | 113% | 128% | 2.99 µM | 100.51% | 101.33%
Cn1nc(C(=O)NCC(=O)N2CCCCCCNC(=O)CC2c2ccccc2)c2ccccc21 (stereo not drawn) [NCGC00467428-01] | 108% | 106% | 90.2% | 74% | 75.4% | 105% | 88.2% | 105% | 2.11 µM | 105.85% | 101.81%
CC1=C(C(=O)Nc2ccc(C)cc2C)C(c2ccc([N+](=O)[O-])cc2)n2ncc(C(=O)Nc3ccc(F)cc3)c2N1 (stereo not drawn) [NCGC00126356-01] | 98.5% | 94.6% | 110% | 107% | 122% | 80.3% | 94% | 83.4% | 2.99 µM | 98.93% | 92.77%
CCOC(=O)c1ccc(NC2=CC(c3ccc(O)c(OCC)c3)N(c3ccc(C(=O)OCC)cc3)C2=O)cc1 (stereo not drawn) [NCGC00102600-01] | 98.6% | 101% | 107% | 140% | 101% | 117% | 126% | 113% | 3.35 µM | 100.94% | 102.23%
Cc1ccc(C)c(Oc2c(C(F)(F)F)oc3c(CN4CCN(C)CC4)c(O)ccc3c2=O)c1 [NCGC00141020-01] | 110% | 115% | 97.7% | 131% | 113% | 86% | 92.3% | 113% | 0.75 µM | 106.86% | 105.57%
CCN(Cc1ccccc1)C(=O)CCC[C@@H]1[C@H]2CCCN3CCC[C@@H](CN1C(=O)c1ccccc1)[C@@H]23 [NCGC00429496-01] | 93.4% | 93.8% | 107% | 115% | 85.5% | 89.3% | 121% | 99.6% | 13.3 µM | 99.16% | 100.31%
CCN1CCN(Cc2c(O)ccc3c(=O)c(Oc4ccccc4Cl)c(C(F)(F)F)oc23)CC1 [NCGC00101484-01] | 99.8% | 94.1% | 88.6% | 66% | 90.1% | 93.5% | 101% | 77.7% | 0.596 µM | 99.03% | 97.39%
